How the values were obtained:
[1] = tested on: LTB4 production from human neutrophil; assay: Activity against LTB4 production from human neutrophil; format: cell-based; settings: human peripheral blood neutrophils, preincubated 37° C. 5 minutes, calcium ionophore A23187 2 μg/ml, 10 minutes, radioimmunoassay, read-out: Inhibitory activity against LTB4 production from human neutrophil IC50
Description: Activity against LTB4 production from human neutrophil
A test compound was added to a suspension of neutrophil separated from the human peripheral blood and the obtained mixture was preincubated at 37° C. for 5 minutes, followed by the addition of calcium ionophore A23187 in an amount of 2 μg/ml. After 10 minutes, the obtained mixture was cooled to stop the reaction. The amount of LTB4 contained in the supernatant of the reaction mixture was determined by radioimmunoassay (see H. Shirota et al., Arzneim Forsol Drug Res., 37 (1987) 930).

[2] = tested on: PGE2 production from synovial cells of rat; assay: Activity against the PGE2 production from cultured synovial cell of rat; format: cell-based, rat (Lewis male); settings: 24 h, cultured rat synovial cells stimulated with neutrophil-originating factor (IL-1-like factor), PGE2 after one day by radioimmunoassay, read-out: Inhibitory activity against PGE2 production from synovial cells of rat IC50
Description: Activity against the PGE2 production from cultured synovial cell of rat
A synovial membrane taken out of the knee joint of a Lewis male rat was treated with collagenase-trypsin to separate off synovial cells. A test compound was added to a system prepared by the subculture of the synovial cells. The cells were stimulated with a neutrophil-originating factor (IL-1-like factor) to induce PGE2 production. After one day, the amount of PGE2 liberated into the culture medium was determined by radioimmunoassay (see R. Hashida et al., Prostaglandins, 27 (1984), 697).

Row | IC50 [1] [nM] | IC50 [2] [nM] | Compound
1 | 510 | 420 | C/C=C(\C(=O)O)c1cc(OC)c(O)c2c(Cc3ccccc3)cccc12 [Example 1, (Z)-2-(5-Benzyl-4-hydroxy-3-methoxy-1-naphthyl)-2-butenoic acid]
2 | 320 | 620 | CC/C=C(\C(=O)O)c1cc(OC)c(O)c2c(Cc3ccccc3)cccc12 [Example 2, (Z)-2-(5-Benzyl-4-hydroxy-3-methoxy-1-naphthyl)-2-pentenoic acid]
3 | 520 | 1450 | CCC/C=C(\C(=O)O)c1cc(OC)c(O)c2c(Cc3ccccc3)cccc12 [Example 3, (Z)-2-(5-Benzyl-4-hydroxy-3-methoxy-1-naphthyl)-2-hexenoic acid]
4 | 1680 | 2760 | COc1cc(/C(=C/C(C)C)C(=O)O)c2cccc(Cc3ccccc3)c2c1O [Example 4, (Z)-2-(5-Benzyl-4-hydroxy-3-methoxy-1-naphthyl)-4-methyl-2-pentenoic acid]
5 | 510 | 1640 | C=CC/C=C(\C(=O)O)c1cc(OC)c(O)c2c(Cc3ccccc3)cccc12 [Example 5, (Z)-2-(5-Benzyl-4-hydroxy-3-methoxy-1-naphthyl)-2,5-hexadienoic acid]
6 | > 10000 | 3100 | CCCC/C=C(\C(=O)O)c1cc(OC)c(O)c2c(Cc3ccccc3)cccc12 [Example 7, (Z)-2-(5-benzyl-4-hydroxy-3-methoxy-1-naphthyl)-2-heptenoic acid]
7 | 1860 | 2100 | COc1cc(/C(=C/c2ccccc2)C(=O)O)c2cccc(Cc3ccccc3)c2c1O [Example 10, (Z)-2-(5-benzyl-4-hydroxy-3-methoxy-1-naphthyl)-3-phenyl-2-propenoic acid]
8 | 1090 | 1880 | COc1cc(/C(=C/Cc2ccccc2)C(=O)O)c2cccc(Cc3ccccc3)c2c1O [Example 11, (Z)-2-(5-benzyl-4-hydroxy-3-methoxy-1-naphthyl)-4-phenyl-2-butenoic acid]
9 | 10000 | 3540 | COc1cc(/C(=C/C2CCCCC2)C(=O)O)c2cccc(Cc3ccccc3)c2c1O [Example 12, (Z)-2-(5-benzyl-4-hydroxy-3-methoxy-1-naphthyl)-3-cyclohexyl-2-propenoic acid]
10 | 830 | 3350 | COc1cc(/C(=C/C(C)(C)C)C(=O)O)c2cccc(Cc3ccccc3)c2c1O [Example 13, (Z)-2-(5-benzyl-4-hydroxy-3-methoxy-1-naphthyl)-4,4-dimethyl-2-pentenoic acid]
11 | 720 | 3230 | C=C(C(=O)O)c1cc(OC)c(O)c2c(Cc3ccccc3)cccc12 [Example 14, 2-(5-benzyl-4-hydroxy-3-methoxy-1-naphthyl)-2-propenoic acid]
12 | 730 | 1070 | COc1cc(C(C(=O)O)=C(C)C)c2cccc(Cc3ccccc3)c2c1O [Example 15, 2-(5-benzyl-4-hydroxy-3-methoxy-1-naphthyl)-3-methyl-2-butenoic acid]
13 | 3160 | 2040 | C/C=C(/C(=O)O)c1cc(OC)c(O)c2c(Cc3ccccc3)cccc12 [Example 40, (E)-2-(5-Benzyl-4-hydroxy-3-methoxy-1-naphthyl)-2-butenoic acid]
14 | 2350 | 280 | COc1cc(C(C(=O)O)=C(Cl)Cl)c2cccc(Cc3ccccc3)c2c1O [Example 55, 2-(5-Benzyl-4-hydroxy-3-methoxy-1-naphthyl)-3,3-dichloro-2-propenoic acid]
